A short description of this data set: Particle size distribution of milled/micronized Compound 1 crystals. It is filed as physicochemical. Particulars: for Particle Size D50: median size; for Particle Size D90: size for which 90% of particles are equal or smaller. Here is the method: For example, Compound 1 crystals were milled (The Retsch Ultra centrifugal Mill ZM 200; Single pass, at 18,000 rpm using 0.25 mm screen) to a median particle size of about 20 micron. Table 3 presents the resultant distribution of particle sizes (Malvern 2000 with the Hydro 2000S wet accessory). The columns present the maximum size of particles in the cumulative percent total presented in the subscript at the header of the column. For example, the column D90 presents the size for which 90% of the particles have an equal or lesser size. The column D50 represents the median size—half of the particles have a greater size, and half of the particles have an equal or lesser size.
For example, Compound 1 crystals were micronized using a jet milling method (4″ Jet Mill, Venturi pressure=40, Mill pressure=100, Feed rate=1304 g/hour) to a median particle size of about 2 micron, as presented in Table 4. Particle size analysis was performed using a dry particle method (Sympatec Helos/KF Particle Size Analyzer).

As for `CC(=O)c1cc2c(o1)C(=O)c1ccccc1C2=O` [Sample A, 2-acetylnaphtho[2,3-b]furan-4,9-dione], the “Particle Size D10” value is given as 0.53 microns, the “Particle Size D50” value was 2.07 microns and the “Particle Size D90” value is given as 4.63 microns.

Turning to `CC(=O)c1cc2c(o1)C(=O)c1ccccc1C2=O` [Sample B, 2-acetylnaphtho[2,3-b]furan-4,9-dione], the “Particle Size D10” value is recorded as 2.3 microns, the “Particle Size D50” value is reported as 20.2 microns and the “Particle Size D90” value turned out to be 48.9 microns.
